Test results as given in US8778688B2, “High-throughput methods for determining pharmacological levels of plasma D-serine” (The Johns Hopkins University, priority 2011, dated 2014).

Key:
[1] = target: T1, DAAO (Mus musculus, UniProt P18894); experiment: Plasma D-serine after oral administration of D-serine ± DAAO inhibitors, determined by SPE/DAAO; assay type: in vivo; conditions: CD1 mice; for plasma D-serine curve / exposure to D-serine on co-administration: D-serine 326 μmole/kg po plus inhibitor po (CBIO 180, TPC 160 μmoles/kg)
T1 construct: CD1 mice (6-8 wk old, Sprague Dawley, Harlan) were dosed orally with D-serine (30 mg/kg)±compounds; from tissue; host or cells: living CD1 mice (whole animal; DAAO of liver, kidney, brain)
Procedure: Plasma was collected at 0.5, 1, 2, 3, and 6 hours after dosage. D-serine was extracted from plasma by SPE and its levels determined by the DAAO reaction. FIG. 2(A) depicts D-serine alone, FIG. 2(B) depicts CBIO alone, D-serine±CBIO and FIG. 2(C) depicts D-serine±TPC. […] Each data point is the average of data from 3 separate mice; error bars correspond to ±S.E.M. D-serine standard curves were constructed for each experiment.
Animals—CD1 mice (6-8 wk old, Sprague Dawley, Harlan) were dosed orally with D-serine (30 mg/kg)±compounds. Animals were sacrificed 0.5, 1, 2, 3 and 6 h after dosing and blood was collected by cardiac puncture bleeds. Plasma was prepared and frozen at −80° C. until use.
(§1) Cation Exchange SPE—D-serine was added to normal mouse plasma at different concentrations to generate a standard curve. Plasma (50 μL) containing D-serine or plasma from D-serine treated animals was diluted in 200 μL 0.03 N HCl (pH 1.5). […] Acidified samples were then added to a cation exchange resin (BioRad AG 50W-X4, 200 μL resin equilibrated with 0.03 N HCl) in deep well spin plates (Harvard Apparatus). Minicolumns were centrifuged for 2 min at 200×g. The resin was washed twice with 250 μL 0.03 N HCl and 3 times with 250 μL 100 mM Tris, pH 8.5. D-serine was eluted with 2 times 250 μL 100 mM Tris, pH 13.
D-serine Measurement—An aliquot (50 μL) of the D-serine eluant from the cation exchange SPE was used as the source of D-serine in the DAAO catalyzed reaction. […] Briefly, the reaction is carried out in Tris buffer (pH 8.5, 100 mM) in the presence of flavin adenine dinucleotide (10 μM). The peroxide formed from the oxidation of D-serine in the presence of porcine DAAO (34 units/mg, Sigma) was made to react with horse radish peroxidase (0.01 mg/ml, Sigma) in the presence of Amplex Red (50 μM, Invitrogen) to make resorufin. Fluorescence of resorufin (ex/em 530/590) was monitored in a SpectraMax Gemini XS fluorimeter for 1 h at 5 min intervals. D-serine concentrations were determined by interpolation from the standard curve of fluorescence vs. D-serine concentration. […]

[2] = target: T2, porcine DAAO (Sus scrofa, UniProt P00371); experiment: DAAO enzyme coupled assay (Amplex Red/HRP, resorufin fluorescence); assay type: biochemical; conditions: control experiment, CBIO not removed by SPE; data not shown
T2 construct: purchased Sigma
Procedure: D-serine Measurement—An aliquot (50 μL) of the D-serine eluant from the cation exchange SPE was used as the source of D-serine in the DAAO catalyzed reaction. The DAAO assay is an enzyme coupled assay that was adapted from a procedure that has been reported previously (P. E. Brandish, et al. J Biomol Screen 11 (2006) 481-87). Briefly, the reaction is carried out in Tris buffer (pH 8.5, 100 mM) in the presence of flavin adenine dinucleotide (10 μM). The peroxide formed from the oxidation of D-serine in the presence of porcine DAAO (34 units/mg, Sigma) was made to react with horse radish peroxidase (0.01 mg/ml, Sigma) in the presence of Amplex Red (50 μM, Invitrogen) to make resorufin. Fluorescence of resorufin (ex/em 530/590) was monitored in a SpectraMax Gemini XS fluorimeter for 1 h at 5 min intervals. D-serine concentrations were determined by interpolation from the standard curve of fluorescence vs. D-serine concentration.
The eluant containing D-serine was then used as substrate in the DAAO catalyzed reaction. […] The levels of several D-amino acids in mouse serum have been reported previously and they range from not detectable to 6 μM (A. Hashimoto, et al. Neurosci Lett 152 (1993) 33-36); these concentrations would give a low fluorescence background. […] In any case, background fluorescence was determined from control animals every time an experiment was carried out. […]

[3] = tested on: prepulse inhibition deficits; conditions: co-administration with D-serine, ddy mice; similar to 10-fold higher doses of D-serine alone; cited from earlier work
[4] = target: T3, DAAO (Rattus norvegicus, UniProt O35078); conditions: oral co-administration with D-serine, rats; cited from earlier work
T3 construct: host or cells: living rats (whole animal)

[5] = Plasma D-serine time profile after oral D-serine, determined by SPE/DAAO; assay type: in vivo, CD1 mice; conditions: D-serine 326 μmoles/kg po
Procedure: […] Animals were sacrificed 0.5, 1, 2, 3 and 6 h after dosing and blood was collected by cardiac puncture bleeds. Plasma was prepared and frozen at −80° C. until use.
as §1
D-serine Measurement—An aliquot (50 μL) of the D-serine eluant from the cation exchange SPE was used as the source of D-serine in the DAAO catalyzed reaction. The DAAO assay is an enzyme coupled assay that was adapted from a procedure that has been reported previously (P. E. Brandish, et al. J Biomol Screen 11 (2006) 481-87). […] Fluorescence of resorufin (ex/em 530/590) was monitored in a SpectraMax Gemini XS fluorimeter for 1 h at 5 min intervals. D-serine concentrations were determined by interpolation from the standard curve of fluorescence vs. D-serine concentration. […]

[6] = tested on: N-methyl-D-aspartate (NMDA) receptor; conditions: multiple clinical studies; high doses (2 g per day po); cited from earlier work
[7] = cited from earlier work

T1 sequence (P18894 whole entry): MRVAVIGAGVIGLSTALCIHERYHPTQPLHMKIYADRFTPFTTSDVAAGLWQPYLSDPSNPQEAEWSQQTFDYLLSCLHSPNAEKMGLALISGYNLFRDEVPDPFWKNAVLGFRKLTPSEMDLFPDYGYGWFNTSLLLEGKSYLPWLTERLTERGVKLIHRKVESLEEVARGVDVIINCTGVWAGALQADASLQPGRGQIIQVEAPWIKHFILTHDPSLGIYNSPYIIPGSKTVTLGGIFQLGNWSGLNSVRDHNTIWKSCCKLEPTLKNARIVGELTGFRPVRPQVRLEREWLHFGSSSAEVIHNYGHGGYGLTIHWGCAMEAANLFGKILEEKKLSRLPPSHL
T3 sequence (O35078 whole entry): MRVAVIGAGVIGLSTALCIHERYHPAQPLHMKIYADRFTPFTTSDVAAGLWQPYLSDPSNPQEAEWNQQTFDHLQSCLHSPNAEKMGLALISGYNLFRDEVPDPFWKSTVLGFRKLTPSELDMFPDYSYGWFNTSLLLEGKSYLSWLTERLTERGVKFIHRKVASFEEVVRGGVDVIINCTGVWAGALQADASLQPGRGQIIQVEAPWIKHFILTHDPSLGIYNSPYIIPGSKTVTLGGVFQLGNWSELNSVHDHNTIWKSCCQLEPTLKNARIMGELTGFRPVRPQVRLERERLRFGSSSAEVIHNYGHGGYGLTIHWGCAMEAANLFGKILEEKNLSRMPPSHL
T2 sequence (P00371 whole entry): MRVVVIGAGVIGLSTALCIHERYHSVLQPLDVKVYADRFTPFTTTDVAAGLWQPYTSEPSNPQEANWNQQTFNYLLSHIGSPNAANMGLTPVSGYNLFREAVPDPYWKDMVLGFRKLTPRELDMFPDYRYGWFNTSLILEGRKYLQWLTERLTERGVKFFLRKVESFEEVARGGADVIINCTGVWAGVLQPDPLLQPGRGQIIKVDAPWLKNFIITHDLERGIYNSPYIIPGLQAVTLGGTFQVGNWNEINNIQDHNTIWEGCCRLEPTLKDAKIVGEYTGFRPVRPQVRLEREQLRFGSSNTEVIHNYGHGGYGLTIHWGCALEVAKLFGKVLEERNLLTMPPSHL

plasma D-serine levels when inhibitor administered in the absence of D-serine ([1]; CBIO alone)	oxidation of D-serine by DAAO [2]	time point showing the highest D-serine plasma concentration ([5]; first time point, Tmax likely earlier)	half-life ([5]; mouse, CD1 mice, plasma, read-out: estimated half-life of D-serine in mouse plasma)	Compound	plasma D-serine curve / exposure to D-serine on co-administration [1]	prepulse inhibition deficits [3]	brain levels of D-serine compared to D-serine alone [4]	plasma levels of D-serine compared to D-serine alone [4]	treating the positive, negative and cognitive deficits of schizophrenia [6]	pKa of the carboxylic acid [7]
–	–	–	–	O=C(O)c1cc2sccc2[nH]1 [TPC, 4H-thieno[3,2-b]pyrrole-5-carboxylic acid]	shifted the exposure of D-serine in plasma	–	–	–	–	–
the same as background levels	completely inhibited	–	–	Oc1noc2ccc(Cl)cc12 [CBIO, 5-chloro-benzo[d]isoxazol-3-ol]	overall curve was shifted to the right	normalized	significantly enhanced	significantly enhanced	–	–
–	–	0.5 h	~50 min	N[C@H](CO)C(=O)O [D-serine]	–	–	–	–	effective	2.1
